Publication PMC5218480 (PLoS ONE, 2017)

Test system: MV-4-11 cells
Test: Gene expression microarray analysis (Affymetrix PrimeView) and GSEA
Format: cell-based, human
Design: RFU PODN (11730768_x_at) / Fold change /veh PODN (11730768_x_at) / RFU LINC00158 (11744669_a_at) / Fold change /veh LINC00158 (11744669_a_at) / RFU DUSP10 (11751237_a_at) / Fold change /veh DUSP10 (11751237_a_at) / RFU ID3 (11757404_x_at) / Fold change /veh ID3 (11757404_x_at) / RFU PLEKHG5 (11737974_s_at) / Fold change /veh PLEKHG5 (11737974_s_at) / RFU LRRC4B (11730491_at) / Fold change /veh LRRC4B (11730491_at) / RFU GIMAP4 (11747438_a_at) / Fold change /veh GIMAP4 (11747438_a_at) / RFU KRT8 (11758183_x_at) / Fold change /veh KRT8 (11758183_x_at) / RFU CNN1 (11734310_a_at) / Fold change /veh CNN1 (11734310_a_at) / RFU VPS37D (11726825_at) / Fold change /veh VPS37D (11726825_at) / RFU C10orf10 (11716522_x_at) / Fold change /veh C10orf10 (11716522_x_at) / RFU KIR2DL2 /// KIR2DL4 /// KIR2DL5A /// KIR2DL5B /// KIR2DS1 /// KIR2DS2 /// KIR2DS3 /// KIR2DS4 /// KIR3DL3 /// KIR3DL3 /// KIR3DS1 (11738374_at) / Fold change /veh KIR2DL2 /// KIR2DL4 /// KIR2DL5A /// KIR2DL5B /// KIR2DS1 /// KIR2DS2 /// KIR2DS3 /// KIR2DS4 /// KIR3DL3 /// KIR3DL3 /// KIR3DS1 (11738374_at) / RFU C1QL1 (11718748_at) / Fold change /veh C1QL1 (11718748_at) / RFU TMPRSS4 (11747572_a_at) / Fold change /veh TMPRSS4 (11747572_a_at) / RFU HAMP (11756126_x_at) / Fold change /veh HAMP (11756126_x_at) / RFU RNFT2 (11725882_a_at) / Fold change /veh RNFT2 (11725882_a_at) / RFU NR4A2 (11747474_a_at) / Fold change /veh NR4A2 (11747474_a_at) / RFU ABCC12 (11746883_a_at) / Fold change /veh ABCC12 (11746883_a_at) / RFU TMEM136 (11760407_x_at) / Fold change /veh TMEM136 (11760407_x_at) / RFU CLDN22 /// WWC2 (11732394_at) / Fold change /veh CLDN22 /// WWC2 (11732394_at) / RFU HLA-DPB1 (11760878_x_at) / Fold change /veh HLA-DPB1 (11760878_x_at) / RFU SPINT1 (11716480_a_at) / Fold change /veh SPINT1 (11716480_a_at) / RFU GAP43 (11754022_s_at) / Fold change /veh GAP43 (11754022_s_at) / RFU A4GNT (11735810_at) / Fold change /veh A4GNT (11735810_at) / RFU PRB3 (11715151_x_at) / Fold change /veh PRB3 (11715151_x_at) / RFU TUBB4B (11761932_at) / Fold change /veh TUBB4B (11761932_at) / RFU CAPN14 (11732068_a_at) / Fold change /veh CAPN14 (11732068_a_at) / RFU TMCC2 (11721928_a_at) / Fold change /veh TMCC2 (11721928_a_at) / RFU IRGQ (11745062_a_at) / Fold change /veh IRGQ (11745062_a_at) / RFU FAM174B (11720279_a_at) / Fold change /veh FAM174B (11720279_a_at) / RFU TMPRSS4 (11748680_a_at) / Fold change /veh TMPRSS4 (11748680_a_at) / RFU FAM212B (11763350_a_at) / Fold change /veh FAM212B (11763350_a_at) / RFU PLEKHG5 (11743358_a_at) / Fold change /veh PLEKHG5 (11743358_a_at) / RFU ZSCAN30 (11745921_a_at) / Fold change /veh ZSCAN30 (11745921_a_at) / RFU CMKLR1 (11741424_a_at) / Fold change /veh CMKLR1 (11741424_a_at) / RFU LOC101060620 /// MAPK8IP1 (11723275_at) / Fold change /veh LOC101060620 /// MAPK8IP1 (11723275_at) / RFU SPTSSB (11747773_x_at) / Fold change /veh SPTSSB (11747773_x_at) / RFU PRSS12 (11739890_at) / Fold change /veh PRSS12 (11739890_at) / RFU BIN1 (11741810_x_at) / Fold change /veh BIN1 (11741810_x_at) / RFU WNT11 (11732464_a_at) / Fold change /veh WNT11 (11732464_a_at) / RFU C10orf10 (11716521_a_at) / Fold change /veh C10orf10 (11716521_a_at) / RFU C5orf56 (11738089_at) / Fold change /veh C5orf56 (11738089_at) / RFU CYB561 (11721691_x_at) / Fold change /veh CYB561 (11721691_x_at) / RFU ANKRD19P (11752326_a_at) / Fold change /veh ANKRD19P (11752326_a_at) / RFU OR2T12 /// OR2T33 /// OR2T8 (11738714_s_at) / Fold change /veh OR2T12 /// OR2T33 /// OR2T8 (11738714_s_at) / RFU VCAN (11748164_a_at) / Fold change /veh VCAN (11748164_a_at) / RFU JSRP1 (11732532_at) / Fold change /veh JSRP1 (11732532_at) / RFU KRTAP10-11 (11738290_x_at) / Fold change /veh KRTAP10-11 (11738290_x_at) / RFU MYO3A (11730013_a_at) / Fold change /veh MYO3A (11730013_a_at) / RFU EBF3 (11725865_a_at) / Fold change /veh EBF3 (11725865_a_at) / RFU CAMK2N1 (11719241_x_at) / Fold change /veh CAMK2N1 (11719241_x_at) / RFU C5orf56 (11738088_a_at) / Fold change /veh C5orf56 (11738088_a_at) / RFU OLFML3 (11715873_a_at) / Fold change /veh OLFML3 (11715873_a_at) / RFU LOC100653217 /// NTM (11731650_a_at) / Fold change /veh LOC100653217 /// NTM (11731650_a_at) / RFU MAPK11 (11762145_a_at) / Fold change /veh MAPK11 (11762145_a_at) / RFU FIZ1 (11724087_x_at) / Fold change /veh FIZ1 (11724087_x_at) / RFU OASL (11726364_x_at) / Fold change /veh OASL (11726364_x_at) / RFU SOX15 (11748057_x_at) / Fold change /veh SOX15 (11748057_x_at) / RFU CD79A (11719716_a_at) / Fold change /veh CD79A (11719716_a_at) / RFU HIST1H1D (11736915_at) / Fold change /veh HIST1H1D (11736915_at) / RFU CASKIN2 (11723855_a_at) / Fold change /veh CASKIN2 (11723855_a_at) / RFU LOC730098 (11760151_x_at) / Fold change /veh LOC730098 (11760151_x_at) / RFU OR4N2 (11742367_at) / Fold change /veh OR4N2 (11742367_at) / RFU PRRT2 (11749266_a_at) / Fold change /veh PRRT2 (11749266_a_at) / RFU SNX32 (11753110_a_at) / Fold change /veh SNX32 (11753110_a_at) / RFU CDHR5 (11726645_a_at) / Fold change /veh CDHR5 (11726645_a_at) / RFU RCAN1 (11760418_a_at) / Fold change /veh RCAN1 (11760418_a_at) / RFU FAM167A (11723789_a_at) / Fold change /veh FAM167A (11723789_a_at) / RFU FAM26E (11764081_at) / Fold change /veh FAM26E (11764081_at) / RFU ISYNA1 (11749810_s_at) / Fold change /veh ISYNA1 (11749810_s_at) / RFU ACY1 (11761880_at) / Fold change /veh ACY1 (11761880_at) / RFU 11764098_at / Fold change /veh 11764098_at / RFU SAMD14 (11745864_x_at) / Fold change /veh SAMD14 (11745864_x_at) / RFU NPB (11741838_a_at) / Fold change /veh NPB (11741838_a_at) / RFU TMPRSS6 (11731388_a_at) / Fold change /veh TMPRSS6 (11731388_a_at) / RFU KRTAP10-2 (11738614_at) / Fold change /veh KRTAP10-2 (11738614_at) / RFU ARHGAP8 /// PRR5-ARHGAP8 (11727945_x_at) / Fold change /veh ARHGAP8 /// PRR5-ARHGAP8 (11727945_x_at) / RFU KRTAP5-7 /// NADSYN1 (11734609_at) / Fold change /veh KRTAP5-7 /// NADSYN1 (11734609_at) / RFU RASL12 (11751679_a_at) / Fold change /veh RASL12 (11751679_a_at) / RFU CDKN2B (11736163_a_at) / Fold change /veh CDKN2B (11736163_a_at) / RFU PRF1 (11729649_at) / Fold change /veh PRF1 (11729649_at) / RFU, ZNF638 /// ZNF638-IT1 / Fold change vs veh, ZNF638 /// ZNF638-IT1 / RFU, PANK3 / Fold change vs veh, PANK3 / RFU, SH3YL1 / Fold change vs veh, SH3YL1 / RFU, ZEB2 / Fold change vs veh, ZEB2 / RFU, NRIP1 / Fold change vs veh, NRIP1 / RFU, PTTG1IP / Fold change vs veh, PTTG1IP / RFU, CAPN2 / Fold change vs veh, CAPN2 / RFU, MED14 / Fold change vs veh, MED14 / RFU, SNORA58 / Fold change vs veh, SNORA58 / RFU, C1orf63 / Fold change vs veh, C1orf63 / RFU, LRRFIP1 / Fold change vs veh, LRRFIP1 / RFU, NDUFAF7 / Fold change vs veh, NDUFAF7 / RFU, SLC12A2 / Fold change vs veh, SLC12A2 / RFU, IBTK / Fold change vs veh, IBTK / RFU, ESF1 / Fold change vs veh, ESF1 / Fold change vs veh, TMEM50B / RFU, TAOK1 / Fold change vs veh, TAOK1 / RFU, ACBD3 / Fold change vs veh, ACBD3 / RFU, TMA16 / Fold change vs veh, TMA16 / RFU, RWDD3 / Fold change vs veh, RWDD3 / RFU, BCAT1 / Fold change vs veh, BCAT1 / RFU, EDEM3 / Fold change vs veh, EDEM3 / RFU, TMEM33 / Fold change vs veh, TMEM33 / RFU, WDR75 / Fold change vs veh, WDR75 / RFU, AHCTF1 / Fold change vs veh, AHCTF1 / RFU, TFRC / Fold change vs veh, TFRC / RFU, ZDHHC17 / Fold change vs veh, ZDHHC17 / RFU, NOM1 / Fold change vs veh, NOM1 / RFU, ARL8B / Fold change vs veh, ARL8B / RFU, ZBTB11 / Fold change vs veh, ZBTB11 / RFU, TAMM41 / Fold change vs veh, TAMM41 / RFU, KIAA1704 /// LOC100996395 / Fold change vs veh, KIAA1704 /// LOC100996395 / RFU, ING1 / Fold change vs veh, ING1 / RFU, TRMT61B / Fold change vs veh, TRMT61B / RFU, FUBP3 / Fold change vs veh, FUBP3 / RFU, TP53 / Fold change vs veh, TP53 / RFU, TNKS2 / Fold change vs veh, TNKS2 / RFU, ZFP14 / Fold change vs veh, ZFP14 / RFU, ACTR2 / Fold change vs veh, ACTR2 / RFU, PPP3R1 / Fold change vs veh, PPP3R1 / RFU, PIK3R1 / Fold change vs veh, PIK3R1 / RFU, HNRNPA1 / Fold change vs veh, HNRNPA1 / RFU, RNF170 / Fold change vs veh, RNF170 / RFU, ZNF28 / Fold change vs veh, ZNF28 / RFU, RNGTT / Fold change vs veh, RNGTT / RFU, OGT / Fold change vs veh, OGT / RFU, BRD1 / Fold change vs veh, BRD1 / RFU, MARS / Fold change vs veh, MARS / RFU, ZNF655 / Fold change vs veh, ZNF655 / RFU, FAHD1 / Fold change vs veh, FAHD1 / RFU, BDP1 / Fold change vs veh, BDP1 / RFU, LRRCC1 / Fold change vs veh, LRRCC1 / RFU, ARID1A / Fold change vs veh, ARID1A / RFU, ZNF146 / Fold change vs veh, ZNF146 / RFU, ZNF330 / Fold change vs veh, ZNF330 / RFU, GPN3 / Fold change vs veh, GPN3 / RFU, C9orf123 / Fold change vs veh, C9orf123 / RFU, N4BP2L2 / Fold change vs veh, N4BP2L2 / RFU, ARFIP1 / Fold change vs veh, ARFIP1 / RFU, FAM179B / Fold change vs veh, FAM179B / RFU, BCL10 / Fold change vs veh, BCL10 / RFU, UHRF1BP1L / Fold change vs veh, UHRF1BP1L / RFU, BET1 / Fold change vs veh, BET1 / RFU, CNOT2 / Fold change vs veh, CNOT2 / RFU, ZNF268 / Fold change vs veh, ZNF268 / Fold change vs veh, ZNF507 / RFU, DGCR2 / Fold change vs veh, DGCR2 / RFU, WDSUB1 / Fold change vs veh, WDSUB1 / Fold change vs veh, HSP90B1 /// MIR3652 / RFU, ADSS / Fold change vs veh, ADSS / RFU, GK / Fold change vs veh, GK / RFU, ZNF148 / Fold change vs veh, ZNF148 / RFU, TAF9 / Fold change vs veh, TAF9 / RFU, SLC1A5 / Fold change vs veh, SLC1A5 / RFU, SLMO2 / Fold change vs veh, SLMO2 / RFU, ABCC4 / Fold change vs veh, ABCC4 / RFU, LOC101060439 /// RAP1B / Fold change vs veh, LOC101060439 /// RAP1B / RFU, RFX7 / Fold change vs veh, RFX7 / RFU, GTPBP10 / Fold change vs veh, GTPBP10 / RFU, CNEP1R1 / Fold change vs veh, CNEP1R1 / RFU, BIVM-ERCC5 /// ERCC5 / Fold change vs veh, BIVM-ERCC5 /// ERCC5 / RFU, ILF3 / Fold change vs veh, ILF3 / RFU 11762660_at / Fold change /veh 11762660_at / RFU VCAN (11757783_s_at) / Fold change /veh VCAN (11757783_s_at) / RFU DDX43 (11728927_at) / Fold change /veh DDX43 (11728927_at) / RFU KRT8 (11758188_x_at) / Fold change /veh KRT8 (11758188_x_at) / RFU NKD1 (11759106_at) / Fold change /veh NKD1 (11759106_at) / RFU SRD5A1 (11742802_a_at) / Fold change /veh SRD5A1 (11742802_a_at) / RFU TPSAB1 /// TPSB2 (11721975_s_at) / Fold change /veh TPSAB1 /// TPSB2 (11721975_s_at) / RFU GSTM3 (11746129_a_at) / Fold change /veh GSTM3 (11746129_a_at) / RFU IL23R (11737362_x_at) / Fold change /veh IL23R (11737362_x_at) / RFU TMEM51 (11727254_a_at) / Fold change /veh TMEM51 (11727254_a_at) / RFU PIWIL2 (11732686_x_at) / Fold change /veh PIWIL2 (11732686_x_at) / RFU ORM1 (11744905_x_at) / Fold change /veh ORM1 (11744905_x_at) / RFU CCDC152 (11743942_at) / Fold change /veh CCDC152 (11743942_at) / RFU ECM1 (11717891_a_at) / Fold change /veh ECM1 (11717891_a_at) / RFU IL23R (11748794_a_at) / Fold change /veh IL23R (11748794_a_at) / RFU TNFAIP8L3 (11732012_x_at) / Fold change /veh TNFAIP8L3 (11732012_x_at) / RFU MBOAT4 (11741988_at) / Fold change /veh MBOAT4 (11741988_at) / RFU 11764193_at / Fold change /veh 11764193_at / RFU TMEM53 (11763286_at) / Fold change /veh TMEM53 (11763286_at) / RFU MAGEB2 (11727129_at) / Fold change /veh MAGEB2 (11727129_at) / RFU TMEM200A (11744735_a_at) / Fold change /veh TMEM200A (11744735_a_at) / RFU CCDC152 (11751479_a_at) / Fold change /veh CCDC152 (11751479_a_at) / RFU FAM211A (11726209_a_at) / Fold change /veh FAM211A (11726209_a_at) / RFU RGS16 (11746705_a_at) / Fold change /veh RGS16 (11746705_a_at) / RFU VCAN (11755009_s_at) / Fold change /veh VCAN (11755009_s_at) / RFU RHOB (11743442_s_at) / Fold change /veh RHOB (11743442_s_at) / RFU RGS16 (11720943_a_at) / Fold change /veh RGS16 (11720943_a_at) / RFU RGS16 (11720944_at) / Fold change /veh RGS16 (11720944_at) / RFU, VPS4B / Fold change vs veh, VPS4B / RFU, CREB1 / Fold change vs veh, CREB1 / RFU, DNAJC13 / Fold change vs veh, DNAJC13 / RFU, GNAQ / Fold change vs veh, GNAQ / RFU, CDK5R1 / Fold change vs veh, CDK5R1 / RFU, ZRANB3 / Fold change vs veh, ZRANB3 / RFU, CUL4A / Fold change vs veh, CUL4A / RFU, CCNY / Fold change vs veh, CCNY / RFU, UFL1 / Fold change vs veh, UFL1 / RFU, COG3 / Fold change vs veh, COG3 / RFU, DIAPH2 / Fold change vs veh, DIAPH2 / RFU, SKA2 / Fold change vs veh, SKA2 / RFU, AFF3 / Fold change vs veh, AFF3 / RFU, LMF1 / Fold change vs veh, LMF1 / RFU, IPO11 / Fold change vs veh, IPO11 / RFU, DFFB / Fold change vs veh, DFFB / RFU, FOXP1 / Fold change vs veh, FOXP1 / RFU, CARD8 / Fold change vs veh, CARD8 / RFU, STRN3 / Fold change vs veh, STRN3 / RFU, ADK / Fold change vs veh, ADK / RFU, RASSF2 / Fold change vs veh, RASSF2 / RFU, WIPF1 / Fold change vs veh, WIPF1 / RFU, LARP1B / Fold change vs veh, LARP1B / RFU, RASA1 / Fold change vs veh, RASA1 / RFU, RB1 / Fold change vs veh, RB1 / RFU, PPFIA1 / Fold change vs veh, PPFIA1 / RFU, MAT2A / Fold change vs veh, MAT2A / RFU, CCT5 / Fold change vs veh, CCT5 / RFU, WDR92 / Fold change vs veh, WDR92 / RFU, CUX1 / Fold change vs veh, CUX1 / RFU, TTC7A / Fold change vs veh, TTC7A / RFU, TMEM135 / Fold change vs veh, TMEM135 / RFU, DEPTOR / Fold change vs veh, DEPTOR / RFU, CPM / Fold change vs veh, CPM / RFU, DNAJB6 / Fold change vs veh, DNAJB6 / RFU, CACNA2D3 / Fold change vs veh, CACNA2D3 / RFU, DTX4 / Fold change vs veh, DTX4 / RFU, TFCP2 / Fold change vs veh, TFCP2 / RFU, GMCL1 /// GMCL1P1 / Fold change vs veh, GMCL1 /// GMCL1P1 / RFU, AEBP2 / Fold change vs veh, AEBP2 / RFU, SNHG1 /// SNORD22 /// SNORD25 /// SNORD26 /// SNORD27 /// SNORD28 /// SNORD29 /// SNORD31 / Fold change vs veh, SNHG1 /// SNORD22 /// SNORD25 /// SNORD26 /// SNORD27 /// SNORD28 /// SNORD29 /// SNORD31 / Fold change (Aza/veh), C12orf56 (ProbeSet 11735607_a_at) / Fold change (ACY-1035/veh), C12orf56 (ProbeSet 11735607_a_at) / Fold change (Aza/veh), FGFR1OP (ProbeSet 11751329_s_at) / Fold change (ACY-1035/veh), FGFR1OP (ProbeSet 11751329_s_at) / Fold change (Aza/veh), VPS36 (ProbeSet 11739960_a_at) / Fold change (ACY-1035/veh), VPS36 (ProbeSet 11739960_a_at) / RFU SYPL1 (11715823_x_at) / Fold change /veh SYPL1 (11715823_x_at) / RFU IGFBP7 (11715501_s_at) / Fold change /veh IGFBP7 (11715501_s_at) / RFU REEP3 (11722064_at) / Fold change /veh REEP3 (11722064_at) / RFU IGLL1 (11728026_x_at) / Fold change /veh IGLL1 (11728026_x_at): dose or concentration left out as unconfirmed
Details: ProbeSet 11725141_a_at; LIST B

Compound: Nc1ccc(-c2cccs2)cc1NC(=O)c1ccc2c(c1)cc(C1CC1)n2CCN1CCOCC1 [ACY-1035]
- Fold change vs veh, FUBP3: 0.87
